# Results published in patent publication US20060205826A1, “Method of using carotenoids in the prevention of cognitive decline and for other neuroprotection functions” (priority 2005, published 2006).
# “Also recorded” adds a separate entry of the source.
# Assays:
# [1] = tested on: diabetic mouse brain; details: diabetic mice killed 20 days after streptozotocin administration; Saravia et al. 2004; cited from earlier work
# [2] = tested on: diabetic rats; details: Lupien et al. (2003); cited from earlier work
# [3] = tested on: GSH; experiment: GSH content in hippocampus homogenate of diabetic mice; assay type: in vivo; details: lutein 0.2 mg/kg p.o. or insulin 500 mU/g s.c. on days 4-13
# Protocol: (§1) Male albino mice were used throughout the study, housed in a environmentally regulated room on a dark-light cycle of 12 hours with free access to food and water. Principles of laboratory animal care (NIH publication no. 85-23, revised 1985) were followed, as well as specific Spanish regulations. Animals were made diabetic with a single subcutaneous injection of 200 mg alloxan/kg body weight (66 mg/ml) in 0.1 M citrate buffer, pH 4.5, at day 0 of the experiment. Control mice were injected with the same volume of vehicle also at day 0 of the experiment.
# Mice were identified as diabetic on the basis of blood glucose levels (higher than 16 mM at least 4 days after alloxan treatment). Animals were divided into subgroups as required by the experiment (control, control+lutein, diabetic, diabetic+lutein, diabetic+insulin, diabetic+insulin+lutein). Lutein was administered daily at a dose of 0.2 mg/kg p.o since day 4 after alloxan or citrate buffer injection until the end of the experiment. […] Glycated hemoglobin was determined in blood samples obtained by heart puncture immediately before killing the animals.
# The GSH content of eye homogenate was quatitated by the method of Reed et al. (Reed et al., 1980). […] These products are quickly separated by HPLC which allows the quantification of nanomolars levels of GSH.
# [4] = tested on: diabetic rodents; details: insulin treatment from the onset of diabetes, Biessels et al 1998; cited from earlier work
# [5] = tested on: MDA, a lipid peroxidation product; experiment: MDA concentration by liquid chromatography in serum, eye and hippocampus of diabetic mice; assay type: in vivo
# Protocol: as §1
# Mice were identified as diabetic on the basis of blood glucose levels (higher than 16 mM at least 4 days after alloxan treatment). Animals were divided into subgroups as required by the experiment (control, control+lutein, diabetic, diabetic+lutein, diabetic+insulin, diabetic+insulin+lutein). […] Insulin treated animals were injected daily with 500 mU/g body weight since day 4 until the end of the experiment. Mice were killed by cervical dislocation on day 14, and hippocampus and retina were removed and homogenized in pre-chilled 0.2 M potassium phosphate buffer, pH 7.0. These homogenates were used to assay protein, GPx activity and MDA and GSH concentrations. Samples were kept frozen (−80° C.) until biochemical assays were performed. Blood was taken from the tail vein daily to assay blood glucose levels. Glycated hemoglobin was determined in blood samples obtained by heart puncture immediately before killing the animals.
# MDA, a lipid peroxidation product, concentration was measured by liquid chromatography according to a modification of the method of Richard et al. (1992) as previously described (Romero et al., 1998). Briefly, 0.1 ml of sample (or standard solutions prepared daily from 1,1,3,3-tetramethoxypropane) and 0.75 ml of working solution (thiobarbituric acid 0.37% and perchloric acid 6.4%; 2/1, v/v) were mixed and heated to 95° C. for 1 h. After cooling (10 min in ice water bath), the flocculent precipitate was removed by centrifugation at 3,200×g for 10 min. The supernatant was neutralized and filtered (0.22 μm) prior to injection on an ODS column 5 μm column (250×4.6 mm). Mobile phase consisted in 50 mM phosphate buffer (pH 6.0): methanol (58:42, v/v). Isocratic separation was performed with 1.0 ml/min flow (HPLC System 325, Kontron) and detection at 532 nm (UV/VIS HPLC Detector 332, Kontron). Calibration curves were run daily.
# [6] = tested on: alloxan diabetic mice; experiment: Electroretinogram (ERG) amplitude in diabetic mice; assay type: in vivo; details: lutein 100 mg/kg p.o. or insulin 500 mU/g s.c. on days 4-13
# Protocol: Male albino mice were used throughout the study, housed in a environmentally regulated room on a dark-light cycle of 12 hours with free access to food and water. Principles of laboratory animal care (NIH publication no. 85-23, revised 1985) were followed, as well as specific Spanish regulations. Animals were made diabetic with a single subcutaneous injection of 200 mg alloxan/kg body weight (66 mg/ml) in 0.1 M citrate buffer, pH 4.5, at day 0 of the experiment. Control mice were injected with the same volume of vehicle also at day 0 of the experiment. Mice were identified as diabetic on the basis of blood glucose levels (higher than 16 mM at least 4 days after alloxan treatment). Animals were divided into subgroups as required by the experiment (control, control+lutein, diabetic, diabetic+lutein, diabetic+insulin, diabetic+insulin+lutein). […] Insulin treated animals were injected daily with 500 mU/g body weight since day 4 until the end of the experiment. Mice were killed by cervical dislocation on day 14, and hippocampus and retina were removed and homogenized in pre-chilled 0.2 M potassium phosphate buffer, pH 7.0. These homogenates were used to assay protein, GPx activity and MDA and GSH concentrations. […] Glycated hemoglobin was determined in blood samples obtained by heart puncture immediately before killing the animals.
# [7] = tested on: GPx activity; experiment: GPx activity in eye and hippocampus homogenate of diabetic mice; assay type: in vivo
# Protocol: Male albino mice were used throughout the study, housed in a environmentally regulated room on a dark-light cycle of 12 hours with free access to food and water. Principles of laboratory animal care (NIH publication no. 85-23, revised 1985) were followed, as well as specific Spanish regulations. Animals were made diabetic with a single subcutaneous injection of 200 mg alloxan/kg body weight (66 mg/ml) in 0.1 M citrate buffer, pH 4.5, at day 0 of the experiment. Control mice were injected with the same volume of vehicle also at day 0 of the experiment. Mice were identified as diabetic on the basis of blood glucose levels (higher than 16 mM at least 4 days after alloxan treatment). Animals were divided into subgroups as required by the experiment (control, control+lutein, diabetic, diabetic+lutein, diabetic+insulin, diabetic+insulin+lutein). […] Insulin treated animals were injected daily with 500 mU/g body weight since day 4 until the end of the experiment. Mice were killed by cervical dislocation on day 14, and hippocampus and retina were removed and homogenized in pre-chilled 0.2 M potassium phosphate buffer, pH 7.0. These homogenates were used to assay protein, GPx activity and MDA and GSH concentrations. Samples were kept frozen (−80° C.) until biochemical assays were performed. Blood was taken from the tail vein daily to assay blood glucose levels. Glycated hemoglobin was determined in blood samples obtained by heart puncture immediately before killing the animals. GPx activity was assayed as reported by Lawrence et al. (1978) towards hydrogen peroxide. The disappearance of NADPH was followed spectrophotometrically at 340 nm. The reaction mixture consisted of 240 mU/ml of glutathione disulfide reductase, 1 mM GSH, 0.15 mM NADPH in 0.1 M potassium phosphate buffer, pH 7.0, containing 1 mM EDTA and 1 mM sodium azide; 50 μl sample were added to this mixture and allowed to equilibrate at 37° C. for 3 min. reaction was started by the addition of 1.5 mM hydrogen peroxide to adjust the final volume of the assay mixture to 1 ml.
# [8] = lutein 100 mg/kg p.o. or insulin 500 mU/g body weight s.c. on days 4-13
compound,measurement,setting,value
C[C@]12CC[C@@H]3c4ccc(O)cc4CC[C@H]3[C@@H]1CC[C@@H]2O [17beta-oestradiol],brain cell proliferation,[1],restored
IGF-I,cognition-related performance in the water maze,[2],prevent loss of cognition-related performance
insulin [reference compound],GSH content in hippocampus homogenate,[3],restored
same,learning impairment in Morris water maze,[4],can prevent this learning impairment
same,MDA levels in hippocampus,[5]; lutein 0.2 mg/kg p.o. or insulin 500 mU/g body weight s.c. on days 4-13,restored; also recorded: able to prevent this effect
same,MDA levels in ocular tissue,[5]; [8],restored; also recorded: able to prevent this effect
same,MDA levels in serum,[5]; [8],restored
same,ERG amplitude (mostly b-wave),[6],partially reversed
same,retinal GPx activity,"[7]; eye homogenate without lens, lutein 100 mg/kg p.o. or insulin 500 mU/g s.c. on days 4-13",partially reversed
same,GPx activity in hippocampus homogenate,[7]; lutein 0.2 mg/kg p.o. or insulin 500 mU/g s.c. on days 4-13,restored
